In patent US20180338955A1, “METHODS FOR REGULATION AND TREATMENT OF GLIOMA CELL MIGRATION AND GLIOBLASTOMA” (priority 2015, published 2018):
“Also recorded” adds a separate entry of the source.

How the values were obtained:
glioma xenografts = settings: in vivo; cited from earlier work
U87 glioma cells = U87 glioma cells cultured on tenascin and vitronectin; cited from earlier work
human GSCs [1] = assay: Migration of human GSCs along parallel DRG axonal bundles (coverslips with parallel scratches); format: cell-based; settings: human GSC-DRG axon co-cultures, versus DMSO control
Experimental: As inhibition of Lck signalling has a dramatic effect on pseudopodia extension and retraction, Applicants investigated whether Lck may also function to regulate the migration and invasion of human GSCs. […] To assess the effect of Lck signaling on the migration and interaction of hGSCs with DRG axons, Applicants seeded hGSCs on DRG axons and treated the cultures with Lck-I or PBS/DMSO for 72 hours. […] To quantify the effect of Lck inhibition on GSC migration, Applicants added GSCs on DRG axons with and without Lck-I and quantified the surface area covered by the migrating glioma cells using Image-J.

[2] = system: human glioblastoma (hGSCs); assay: Orthotopic xenograft mouse model of human glioblastoma; format: in vivo, Nu/J mice
Experimental: To determine the effect of inhibition of Lck signaling in human glioma formation in vivo, Applicants used an orthotopic xenograft mouse model of human glioblastoma (Singh et al., 2004; Valadez et al., 2014). Applicants injected under stereotactic guidance 200,000 hGSCs at coordinates −2.0 mm AP and +1.5 mm ML relative to Bregma. The Lck-I or the PBS/DMSO were administered through an Alzet pump in the lateral ventricle continuously for 4 weeks. Brains were formalin fixed and stained for human Ki67 4 weeks after the implantation.
Intracranial injections were performed using a stereotaxic apparatus (Kopf) on 8-week-old Nu/J mice initially sedated with 4% isoflurane and maintained with 2% isoflurane. After leveling the skull, a hole was drilled with a #72 micro drill bit (Kyocera) at coordinates −2.0 mm AP and +1.5 mm ML relative to Bregma. A 75 RN Hamilton syringe was then lowered to a depth of −2.5 mm DV at a rate of 0.5 mm per minute, and 200,000 primary GSCs from donor 2 resuspended in a total volume of 4 μl were injected at a rate of 0.5 μl per minute using a Stoelting Quintessiential Stereotaxic Injector. In order to reduce backflow, the syringe was allowed to rest for 2 minutes post-injection before it was withdrawn at a rate of 0.5 mm per minute, and the cavity was immediately sealed with bone wax (Ethicon). A subcutaneous pocket was formed, and an Alzet osmotic pump 1004 fitted with brain infusion kit 3 and containing either 1.175 mg of A77 (Axon Medchem) or DMSO/Kolliphor ELP vehicle was inserted near the left hind limb of the animal. A second hole was drilled at coordinates of +0.5 mm and +1.1 mm ML relative to Bregma with the same micro drill bit to allow placement of the brain infusion catheter in the right lateral ventricle. The brain infusion catheter was lowered into the brain and glued to the skull using Loctite 454 cyanoacrylate adhesive. The incision was sealed using veterinary tissue glue and a dab of antibiotic ointment was placed over the head and neck. Animals were monitored daily for weight loss, pain and distress. After four weeks, animals were euthanized with pentobarbital and perfused with 4% formaldehyde. Brains were harvested, post-fixed in 4% formaldehyde, and processed for paraffin embedding. Paraffin embedded tissue was sliced on a microtome to […] sections and placed on microscope slides. Tissues were stained for H&E and ki67 (Roche) using a Ventana Autostainer. Images were captured using a Zeiss Axiovert inverted microscope.

Lyn [3] = biological target: T1, Lyn (Homo sapiens, UniProt P07948); assay: Immunoprecipitation/Western blot, phosphorylation state of Lyn; format: cell-based; settings: human glioma cells, 500 nm
Experimental: (§1) For immunoprecipitation studies, U87 MG cells treated with A77 or DMSO vehicle were lysed in 1×RIPA buffer containing protease and phosphatase inhibitors (Sigma). Lysates were cleared via centrifugation and were pre-cleared with TrueBlot anti-rabbit IgG beads (eBiosience) to remove non-specific binding. Primary antibodies against Lck, Src, Fyn, Lyn or Yes (Cell Signaling) were added and the lysates were incubated overnight at 4° C. with gentle rotation. The following day, TrueBlot anti-rabbit IgG (eBioscience) beads were added to the lysate and incubated at 4° C. for 2 hours. Immunoprecipitates were washed, solubilized in 2×Laemmli buffer and boiled for 5 minutes. The supernatants were separated on an 8% Bis-Tris SDS-PAGE gel, transferred to nitrocellulose and immunoblotted.
Target sequence in this assay (P07948 whole entry): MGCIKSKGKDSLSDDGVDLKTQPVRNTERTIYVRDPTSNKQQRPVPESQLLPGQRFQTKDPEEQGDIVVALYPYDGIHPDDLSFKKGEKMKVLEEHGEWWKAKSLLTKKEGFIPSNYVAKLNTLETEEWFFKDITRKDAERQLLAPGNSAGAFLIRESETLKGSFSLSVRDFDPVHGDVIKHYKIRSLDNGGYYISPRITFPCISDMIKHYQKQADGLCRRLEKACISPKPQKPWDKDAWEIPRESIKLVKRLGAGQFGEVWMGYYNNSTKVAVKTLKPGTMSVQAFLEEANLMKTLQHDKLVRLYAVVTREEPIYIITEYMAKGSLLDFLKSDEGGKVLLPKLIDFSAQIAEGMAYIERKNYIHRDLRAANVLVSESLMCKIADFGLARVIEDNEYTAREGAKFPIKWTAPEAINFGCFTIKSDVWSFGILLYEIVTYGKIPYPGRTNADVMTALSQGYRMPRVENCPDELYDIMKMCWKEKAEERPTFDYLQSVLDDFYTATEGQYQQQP

human GSCs [4] = assay: Invasion in Alvetex scaffold; format: cell-based; settings: 500 nM, 72 hours, versus untreated
Experimental: Alvetex scaffolds were coated with fibronectin (10 μg/ml) for 2 hours at 37° C. 750,000 GBM cells were plated in the center of each scaffold and allowed to attach for one hour. Cultures were grown in Supplemented NB-A Medium containing 10% FBS. Cultures were treated with 500 nM of Lck inhibitor or DMSO vehicle for 72 hours. Samples were fixed in 4% formaldehyde for 10 minutes, permeabilized with 0.1% Triton X-100 and blocked with 1% BSA-PBS for 30 minutes at room temperature. Samples were subsequently stained with Rhodamine RedX Phalloidin (Life Technologies) and Hoescht 33342 (Life Technologies) following manufacturer's protocols. Slides were mounted with Aqua Poly/Mount (Polysciences) and imaged using a Zeiss confocal microscope.

human GSCs [5] = assay: Migration of human GSCs on purified DRG axon cultures; format: cell-based; settings: purified DRG axons, 72 hours
Experimental: To assess the effect of the Lck inhibitor on migrating glioma cells, GBM spheres were seeded on rat DRG cultures in Supplemented NB-A Medium containing 10% FBS. Spheres were allowed to attach for one hour. Cultures were treated with 500 nM of Lck inhibitor or DMSO vehicle for 72 hours. Samples were fixed in 4% formaldehyde for 10 minutes, permeabilized and blocked with 5% normal goat serum containing 0.3% Triton X-100 in 1×PBS (Sigma) at RT for 1 hour. The samples were stained overnight at 4° C. with Ki67 (Cell Signaling), GFAP (DAKO) and NF (EnCor Biotechnology). Area of glioma stem cell migration for each sample was calculated by normalizing the total area of migration to the interior area of the non-migrating sphere mass. Differences between groups were then confirmed using Student's test.

Lyn [6] = biological target: T1, Lyn; settings: cited from earlier work
Target sequence in this assay (P07948 whole entry, species assumed): as the sequence (P07948 whole entry) above

human GSCs [7] = assay: xCELLigence impedance assay of cell spreading/migration; format: cell-based; settings: 500 nM, versus DMSO
Experimental: The xCELLigence system was used to perform cell migration assays on the RTCA DP instrument. Electrical impedance due to cell migration is represented as cell index. GBM cells were seeded on fibronectin coated wells of the RTCA CIM-plate 16 (ACEA Biosciences) and allowed to attach and spread for 1 hour at room temperature. After 1 hour, wells were treated with DMSO vehicle or 500 nM Lck inhibitor. As cells migrated towards the lower chamber containing 10% FBS with DMSO vehicle or 500 nM Lck inhbitor, measurements were captured every 5 minutes. Cell index data was plotted overtime and the slope between 2 and 6 hours was calculated.

phospho(Y118)-paxillin [8] = assay: Immunocytochemistry of phospho(Y118)-paxillin in human GSCs; format: cell-based; settings: 500 nM, 2 hours, versus control
Experimental: (§2) To assess pseudopodia formation, GBM stem cells were seeded on fibronectin coated (10 ug/ml, Sigma) glass chamber slides (NUNC) in the presence of serum for 2.5 hours. Cultures were treated with 500 nM of Lck inhibitor or DMSO vehicle for 2 hours and then fixed in 4% formaldehyde. Samples were permeabilized and blocked with 5% normal goat serum containing 0.3% Triton X-100 in 1×PBS (Sigma) at RT for 1 hour. The samples were stained overnight at 4° C. with Phospho-Paxillin (CellSignaling). The following day, secondary antibodies were applied at manufacturer recommended dilutions for 1 hour at RT (Jackson ImmunoResearch). Samples were subsequently stained with Rhodamine RedX Phalloidin (Life Technologies) and Hoescht 33342 (Life Technologies) following manufacturer's protocols. Slides were mounted with Aqua Poly/Mount (Polysciences) and imaged using a Zeiss confocal microscope. Adobe Photoshop was used to count the total number of pseudopodia, which included both axial and radial projections, per cell for each group. Differences between groups were confirmed using Student's t-test.

phospho(Y221)-CrkII = assay: Western blot of hGSC lysates for phospho(Y221)-CrkII; format: cell-based, human; settings: hGSCs (GSC1, GSC2) on fibronectin, 500 nM, 2 hours
Source text: (§3) For total cell lysates, cultures were lysed in 1×SDS lysis buffer supplemented with protease and phosphatase inhibitors (Sigma). Lysates were sonicated and cleared by centrifugation. Samples were separated on 4-12% Bis-Tris SDS-PAGE gels (NuPAGE), transferred on to nitrocellulose and immunoblotted using the following primary antibodies: p(Y418)-Src family, Lck (D88), […], pCrkII (Cell Signaling), mortalin (a kind gift of Dr. Alice Cavanaugh), and β-actin (Sigma). A custom phospho-specific polyclonal antibody was generated against p(Y394)-Lck and affinity-purified against total Lck, Fyn and Lyn (Thermo Fisher). Secondary antibodies used were HRP-conjugate goat anti-mouse and goat anti-rabbit (Cell Signaling). Semi-quantitative analysis was conducted with FluorChem SP analytical software. Statistical significance was determined by the two-tailed Student's t-test.

Fyn [9] = biological target: T2, Fyn (Homo sapiens, UniProt P06241); assay: Immunoprecipitation/Western blot, phosphorylation state of Fyn; format: cell-based; settings: human glioma cells, 500 nm
Experimental: as §1
Target sequence in this assay (P06241 whole entry): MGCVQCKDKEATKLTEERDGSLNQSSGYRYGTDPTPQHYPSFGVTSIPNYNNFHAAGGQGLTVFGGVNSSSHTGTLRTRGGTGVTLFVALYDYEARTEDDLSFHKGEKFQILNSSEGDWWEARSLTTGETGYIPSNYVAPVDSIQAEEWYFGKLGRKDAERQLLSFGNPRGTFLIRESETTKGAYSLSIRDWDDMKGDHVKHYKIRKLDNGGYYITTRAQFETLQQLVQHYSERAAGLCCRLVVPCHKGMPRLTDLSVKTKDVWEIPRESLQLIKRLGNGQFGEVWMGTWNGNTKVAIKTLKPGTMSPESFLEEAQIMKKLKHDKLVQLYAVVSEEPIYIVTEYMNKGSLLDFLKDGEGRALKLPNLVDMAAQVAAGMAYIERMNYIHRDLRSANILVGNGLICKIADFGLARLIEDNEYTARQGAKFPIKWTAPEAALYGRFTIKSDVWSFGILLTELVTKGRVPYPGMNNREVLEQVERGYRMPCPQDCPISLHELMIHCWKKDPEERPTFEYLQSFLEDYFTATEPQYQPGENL

phospho(Y394)-Lck = biological target: T3, phospho(Y394)-Lck (Homo sapiens, UniProt P06239); assay: Western blot of hGSC lysates for phospho(Y394)-Lck; format: cell-based; settings: hGSCs (GSC1, GSC2) on fibronectin, 500 nM, 2 hours
T3 construct: hGSCs isolated from two patients with glioblastomas (GSC1 and GSC2) left untreated or treated with 500 nM Lck-I for 2 hours; endogenous in cells; host or cells: primary human glioma stem cells (GSC1, GSC2) from two glioblastoma patients
Experimental: For total cell lysates, cultures were lysed in 1×SDS lysis buffer supplemented with protease and phosphatase inhibitors (Sigma). Lysates were sonicated and cleared by centrifugation. […] A custom phospho-specific polyclonal antibody was generated against p([MUT])-Lck and affinity-purified against total Lck, Fyn and Lyn (Thermo Fisher). Secondary antibodies used were HRP-conjugate goat anti-mouse and goat anti-rabbit (Cell Signaling). Semi-quantitative analysis was conducted with FluorChem SP analytical software. Statistical significance was determined by the two-tailed Student's t-test.

phospho(Y118)-paxillin [10] = assay: Western blot of hGSC lysates for phospho(Y118)-paxillin; format: cell-based, human; settings: hGSCs (GSC1, GSC2) on fibronectin, 500 nM, 2 hours
Source text: as §3

Fyn [11] = biological target: T2, Fyn; settings: cited from earlier work
Target sequence in this assay (P06241 whole entry, species assumed): as the sequence (P06241 whole entry) above

human GSCs [12] = assay: Pseudopodia (lamellipodia) formation of human GSCs on fibronectin; format: cell-based; settings: fibronectin substrate, 500 nM, 2 hours, versus untreated/DMSO
Experimental: as §2

[13] = continuous infusion in the lateral ventricle for 4 weeks, n=5

T3 sequence (P06239 whole entry): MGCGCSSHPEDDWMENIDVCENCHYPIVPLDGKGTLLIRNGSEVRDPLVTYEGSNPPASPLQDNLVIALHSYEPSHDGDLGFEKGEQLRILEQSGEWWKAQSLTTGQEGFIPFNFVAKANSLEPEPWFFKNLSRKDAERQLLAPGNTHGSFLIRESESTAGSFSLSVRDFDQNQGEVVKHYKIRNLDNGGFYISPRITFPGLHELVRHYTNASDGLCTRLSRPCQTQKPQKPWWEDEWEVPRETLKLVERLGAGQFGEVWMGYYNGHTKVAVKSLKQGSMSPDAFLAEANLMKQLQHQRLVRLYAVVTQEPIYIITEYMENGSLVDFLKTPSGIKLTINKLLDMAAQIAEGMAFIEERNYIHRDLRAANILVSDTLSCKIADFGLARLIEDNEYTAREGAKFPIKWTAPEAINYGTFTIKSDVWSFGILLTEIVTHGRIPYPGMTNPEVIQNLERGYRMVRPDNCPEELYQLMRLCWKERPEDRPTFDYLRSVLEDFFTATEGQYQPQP

For `CC(C)[C@H]1C(=O)N[C@@H](CCCN=C(N)N)C(=O)NCC(=O)N[C@@H](CC(=O)O)C(=O)N[C@H](Cc2ccccc2)C(=O)N1C` [EMD121974, Cilengitide], the “effect on glioma xenografts” value (glioma xenografts) is listed as “significant regression” and the apoptosis (U87 glioma cells) is listed as “induces apoptosis”.

With `COc1cc(-c2nn([C@H]3CC[C@H](N4CCN(C(C)=O)CC4)CC3)c3ncnc(N)c23)ccc1NC(=O)c1cc2ccccc2n1C` [Lck-I, A770041] the “migration along parallel axonal bundles (finger-like projections)” value (human GSCs [1]) was “complete inhibition of migration; also recorded: complete ablation of the finger-like projections”, the body condition score ([2]; all treated animals, 4 weeks) was “excellent” and the “side effects of local administration” value ([2]; continuous infusion in the lateral ventricle for 4 weeks) was “no apparent side effects”. For the same molecule, the “invasion/migration of human glioma cells within the brain parenchyma” value [2, 13] was “minimal invasion/integration; also recorded: significant inhibition of tumor migration and invasion; also recorded: minimal invasion and migration”, the tissue necrosis [2, 13] was “absence of tissue necrosis; also recorded: lack of focal necrosis” and the tumor formation ([2]; continuous infusion in the lateral ventricle for 4 weeks, versus PBS/DMSO, n=5) was “complete lack of solid tumor formation; also recorded: significant inhibition of tumor formation”. The “phosphorylation state of Lyn” value (Lyn [3]) was “does not affect; also recorded: no effect”, the “invasion (depth/total area of invasion within scaffold, z-stack confocal)” value (human GSCs [4]) was “significant inhibition; also recorded: significant reduction” and the “total area of migration (surface area covered by migrating glioma cells)” value (human GSCs [5]; 500 nM) was “significant reduction”. The “integration of tumor cells within the axonal network” value (human GSCs [5]; n=6) was “almost complete lack of integration; also recorded: limited integration and expansion”, the “migration of individual glioma cells (GFAP+/Ki67+ migrating tumor cells)” value (human GSCs [5]; versus control) was “inhibition of migration; also recorded: significant decrease” and the “specificity for Lck over Lyn” value (Lyn [6]) was 8 fold. The “human GSC migration (surface area by electrical impedance)” value (human GSCs [7]) was “significant reduction”, the “cell spreading (cell processes) after addition” value (human GSCs [7]; fibronectin-coated plate) was “immediate retraction of cell processes” and the “phospho-paxillin(Y118) staining at focal adhesions” value (phospho(Y118)-paxillin [8]) was “reduced; also recorded: almost complete absence”. The “phosphorylation level of CrkII, phospho(Y221)-CrkII” value (phospho(Y221)-CrkII) was “significantly reduced; also recorded: significant reduction”, the “phosphorylation state of Fyn” value (Fyn [9]) was “does not affect; also recorded: no effect” and the “phosphorylation level of Lck, phospho(Y394)-Lck” value (phospho(Y394)-Lck) was “significantly reduced; also recorded: significant reduction”. The “phosphorylation level of paxillin, phospho(Y118)-paxillin” value (phospho(Y118)-paxillin [10]) was “significantly reduced; also recorded: significant reduction”, the “specificity for Lck over Fyn” value (Fyn [11]) was 300 fold and the “number of pseudopodia (lamellipodia) per cell” value (human GSCs [12]) was “significantly reduced; also recorded: significantly lower”.
